According to ChEMBL document CHEMBL1151585, “Aryl phosphate derivates of AZT inhibit HIV replication in cells where the nucleoside is poorly active” (Bioorg Med Chem Lett, 1992):

Columns and labels:
[1] = Toxic dose of compound which causes 50% cytotoxicity towards HIV-1 uninfected JM cells; assay type: toxicity, cell-based, JM1; settings: human, read-out: TD50 (the source's name)
[2] = system: JM1; assay: Effective dose of compound that decreases antigen production in HIV-1 infected JM cells to 50% of control; assay type: functional; settings: Homo sapiens, read-out: ED50 (the source's name)

SMILES | CC50 [1] [µM] | EC50 [2] [µM]
COC(=O)C(C)NP(=O)(OCC1OC(n2cc(C)c(=O)[nH]c2=O)CC1N=[N+]=[N-])Oc1ccc([N+](=O)[O-])cc1 (stereo not drawn) | 300 | 40
COC(=O)C(CC(C)C)NP(=O)(OCC1OC(n2cc(C)c(=O)[nH]c2=O)CC1N=[N+]=[N-])Oc1ccccc1 (stereo not drawn) | 80 | 8
COC(=O)[C@H](C)NP(=O)(OC[C@H]1O[C@@H](n2cc(C)c(=O)[nH]c2=O)C[C@@H]1N=[N+]=[N-])Oc1ccccc1 (stereo partly drawn) | 500 | 0.8
CCc1ccc(OP(=O)(NC(C)C(=O)OC)OCC2OC(n3cc(C)c(=O)[nH]c3=O)CC2N=[N+]=[N-])cc1 (stereo not drawn) | 40 | 0.4
COC(=O)C(C)NP(=O)(OCC1OC(n2cc(C)c(=O)[nH]c2=O)CC1N=[N+]=[N-])Oc1ccc(F)cc1 (stereo not drawn) | > 200 | 0.32
COC(=O)C(C)NP(=O)(OCC1OC(n2cc(C)c(=O)[nH]c2=O)CC1N=[N+]=[N-])Oc1ccc(OC)cc1 (stereo not drawn) | 100 | 0.8
COC(=O)C(Cc1ccccc1)NP(=O)(OCC1OC(n2cc(C)c(=O)[nH]c2=O)CC1N=[N+]=[N-])Oc1ccccc1 (stereo not drawn) | 100 | 1.6
COC(=O)CNP(=O)(OCC1OC(n2cc(C)c(=O)[nH]c2=O)CC1N=[N+]=[N-])Oc1ccccc1 (stereo not drawn) | 1000 | 100
Cc1cn([C@H]2C[C@H](N=[N+]=[N-])[C@@H](CO)O2)c(=O)[nH]c1=O [ZIDOVUDINE] | > 1000 | 100
